Source: PMC4189421, “Induction of Oligodendrocyte Differentiation and In Vitro Myelination by Inhibition of Rho-Associated Kinase” (ASN NEURO, 2014)

Legend:
[1] = tested on: MYPT1 phosphorylation in mNph-OPC; test: MYPT1 phosphorylation (sandwich ELISA, western blot) as ROCK target engagement; conditions: for Decrease of MYPT1 phosphorylation (ELISA): 4-hr mNph-OPC treatment
Protocol: Tris-glycine acrylamide-bysacrylamide gradient gel electrophoresis was performed as follows: After washing the cells with ice-cold PBS, protein lysates were made by adding 50 µl of PhosphoSafe extraction reagent (EMD Millipore) supplemented with antiprotease cocktail (cOmplete; Roche, Branford, CT) onto each 100-mm^2 cell culture plate. After detaching the cells with the help of a cell scraper and disrupting cell membranes by sonication, the protein extracts were centrifuged (10,000 g, 10 min, 4℃) and the supernatants separated. Protein content was measured by the BCA protein determination method (Biorad, Hercules, CA), and 30 µg of total protein was mixed with SDS sample buffer (Laemmli) supplemented with 1% β-mercaptoethanol. After heating the samples to 70℃ for 10 min, they were loaded onto 4% to 20% acryl-bysacrylamide gradient gels, and electrophoresis was carried out at 120 volts with constant amperage.
Resolved proteins were then transferred onto nitrocellulose membranes using the iBlot methodology and device (Life technologies). […] Secondary detection was performed using Li-Cor IRDye secondary anti-mouse and anti-rabbit antibodies, and near-infrared signal was detected by Li-Cor’s Odyssey imaging system.
We assessed MYPT1 phosphorylation in Nph-OPCs treated for 4 hr with ROCK inhibitors in a dose-response experiment and using a sandwich ELISA as a measuring method (MBL International).

mouse-derived OPCs = test: Myelin protein mRNA expression in mouse-derived OPCs (qPCR); assay type: cell-based; conditions: mouse-derived OPCs exposed for 4 days
Protocol: Neurospheres (Nph) were prepared from embryos at 14.5 days of gestation obtained from timed pregnant females of C57/Bl6 mice, as previously described ([Kornblum, Yanni, Easterday, & Seroogy, 2000]; [Pedraza, Monk, Lei, Hao, & Macklin, 2008]). In brief, after separation of meninges and cerebellum, cerebrum tissue was mechanically triturated with a 1-ml micropipette until total tissue dissociation was achieved, filtered through a 70 -µm cell strainer (Fisher Scientific, Pittsburgh, PA), and plated in 25-cm^2 plastic culture flasks (2 brains/flask). Nph proliferation media (NPM) consisted of Dulbecco’s Modified Eagle Medium (DMEM)/F12, B27 neuronal supplement (Gibco, Baltimore, MD) and 10 ng/ml […] (EGF; Sigma, St. Louis, MO). After 48 to 72 hr, floating Nphs were passaged at a 1 : 1 ratio into 75-cm^2 culture flasks. After a further 48 to 72 hr, they were passaged into 150-cm^2 flasks. […]
Total RNA was isolated from single-cell cultures or tissue explants using Tri-Zol reagent (Gibco). cDNA was generated from 1 to 3 µg of total RNA by Retrotranscriptase II (Gibco) reaction, and the selected transcripts were detected and amplified by quantitative RT-PCR in an Applied Biosystems (Grand Island, NY) 7500 fast qPCR machine, following the manufacturer’s instructions. […]

[2] = tested on: cerebellar organotypic cultures; test: Remyelination in lysolecithin-demyelinated cerebellar slices (qPCR of MBP, PLP, MOG); assay type: cell-based, rat; conditions: 10 µM, 10-day incubation post-lysolecithin, vs 0.1% DMSO
Protocol: In brief, after careful dissection to keep the tissue intact, cerebella of postnatal Days 4 to7 wild-type mouse pups were sectioned at 400 -µm thickness using a Leica VT1000S vibratome. […] When the slices were firmly attached, fresh medium was added to cover the tissue, and the cultures were maintained under these conditions for 4 days. […] Treatments with compounds were initiated at this point, and the cultures maintained for 4 to 10 additional days. Demyelination–remyelination was assessed by real-time polymerase chain reaction (PCR).

rat mixed glial OPCs = test: Myelin protein expression in rat mixed glia-derived OPCs (qPCR, MBP ELISA); assay type: cell-based
Protocol: Rat postnatal OPCs were obtained as described elsewhere according to the original procedure of [McCarthy and […] (1980)]. In brief, postnatal Day 1 rat pups were sacrificed, and cerebral cortices dissected and mechanically dissociated in medium composed of DMEM, 10% heat inactivated fetal bovine serum, and 5 μg/ml penicillin/streptomycin. Dissociated cells were plated and maintained in 75-cm^2 culture flasks for 10 days, replenishing with fresh media at Days 3 and 7. At Day 10, the flasks were shaken on a heated (37°C) shaker for 1 hr at 110 rpm to separate loosely attached microglial cells. The medium was replenished, and the cells incubated for the remainder of the day. To dislodge OPCs from the astrocyte monolayer, flasks were shaken overnight (210 rpm, 37°C). […] Cells were then plated on PDL-coated tissue culture plastic and treated with test compounds. […] The results are presented as specific mRNA expression relative to either β-actin or β-tubulin, used as internal controls as indicated. OPCs isolated from rat mixed glial cultures are known to mature readily in the absence of mitogens achieving a premyelinating OL stage as determined by the expression of the cell surface sulfatide O4, and the myelin proteins MBP and PLP among others ([Armstrong, 1998]; [Barbarese & Pfeiffer, 1981]; [[…], 1999]; [Jung-[…], Schumacher, Robel, & Baulieu, 1996]; [Konola, Tyler, Yamamura, & Lees, 1991]). They also display marked morphological changes, progressing from bipolar to multibranched cells generating membranous structures, and probably represent a later developmental stage than Nph-OPC. In rat mixed glial OPCs, we measured myelin protein expression at the RNA level by qPCR and MBP production by ELISA (MBL International, Woburn, MA).

[3] = tested on: mouse neurosphere-derived oligodendrocyte precursor cells (Nph-OPCs); test: Morphology-based OPC differentiation assay (branches, outgrowth; high-content imaging); assay type: cell-based; conditions: Mus musculus, Oligodendrocyte precursor cell, 72 h, read-out: IC50, generation of branches in OPC differentiation assay
Protocol: Neurospheres (Nph) were prepared from embryos at 14.5 days of gestation obtained from timed pregnant females of C57/Bl6 mice, as previously described ([Kornblum, Yanni, Easterday, & Seroogy, 2000]; [Pedraza, Monk, Lei, Hao, & Macklin, 2008]). In brief, after separation of meninges and cerebellum, cerebrum tissue was mechanically triturated with a 1-ml micropipette until total tissue dissociation was achieved, filtered through a 70 -µm cell strainer (Fisher Scientific, Pittsburgh, PA), and plated in 25-cm^2 plastic culture flasks (2 brains/flask). Nph proliferation media (NPM) consisted of Dulbecco’s Modified Eagle Medium (DMEM)/F12, B27 neuronal supplement (Gibco, Baltimore, MD) and 10 ng/ml […] (EGF; Sigma, St. Louis, MO). After 48 to 72 hr, floating Nphs were passaged at a 1 : 1 ratio into 75-cm^2 culture flasks. After a further 48 to 72 hr, they were passaged into 150-cm^2 flasks. Subsequent passages were performed every 3 to 4 days at a ratio of 1 : 2 or 1 : 3 in the same media, and Nph were used to generate OPCs for no more than 12 passages.
OPCs were generated by chemical disaggregation of Nph with a mouse neural progenitor dissociation kit following the manufacturer instructions (NeuroCult, StemCell Technologies, AB, Canada). The single-cell suspension was then filtered through a 40 -µm cell strainer and plated on poly-D-lysine (PDL)-coated plates. […]
To determine the effects of ROCK inhibition on OPCs, we developed a high-content image morphological analysis of OPC differentiation using mouse embryonic neural progenitor-derived OPCs (Nph-OPCs). […] Four images per well were analyzed using a neurite outgrowth module (Molecular Devices, Sunnyvale, CA). We quantified the number of branches and total outgrowth per cell (Figure 1). […] Additionally, nuclear staining by Hoechst allowed the accurate association of branches and processes to their corresponding cell bodies and permitted quantification of total cell numbers in each well.

C[C@@H](N)[C@H]1CC[C@H](C(=O)Nc2ccncc2)CC1.Cl.Cl [Y0503, trans-4-[(1 R)-1-aminoethyl]-N-4-pyridinylcyclohexanecarboxamide dihydrochloride]
Decrease of MYPT1 phosphorylation (ELISA) ([1]; 30 µM): ~80% | Decrease of MYPT1 phosphorylation (ELISA) ([1]; 100 µM): more than 80% | Duration of downregulation of MYPT1 phosphorylation (western blot) ([1]; control levels again after 24 hr of treatment): over 12 hr | MBP and PLP mRNA (mouse-derived OPCs): increased significantly | Expression of MBP, PLP, MOG mRNAs in demyelinated cerebellar slices (qPCR) [2]: significant increase | Expression of MBP, PLP, and MOG mRNAs (qPCR) (rat mixed glial OPCs; 3 days maturation +4 days treatment, concentrations as low as 0.1 µM): significant increase | MBP at the protein level (ELISA) (rat mixed glial OPCs; treatments at 24 hr and 72 hr after plating): increased expression | IC50 [3]: 2700 nM
